Assay results taken from PubChem BioAssay (NCI).
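Briefly, cells in 96-well plates were exposed to five compound concentrations for 48 h, and endpoints were estimated by linear interpolation. The concentration for 50% growth inhibition is given as GI50. TGI is the concentration that stops growth completely.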

Columns and labels:
Assay in all cases: inhibition of tumour cell growth, NCI panel, 48 h
786-0 renal = tested on: 786-0 renal
A498 renal = tested on: A498 renal
A549 NSCLC = tested on: A549 NSCLC
ACHN renal = tested on: ACHN renal
BT-549 breast = tested on: BT-549 breast
CAKI-1 renal = tested on: CAKI-1 renal
CCRF-CEM leukemia = tested on: CCRF-CEM leukemia
COLO 205 colon = tested on: COLO 205 colon
DU-145 prostate = tested on: DU-145 prostate
EKVX NSCLC = tested on: EKVX NSCLC
HCC-2998 colon = tested on: HCC-2998 colon
HCT-116 colon = tested on: HCT-116 colon
HCT-15 colon = tested on: HCT-15 colon
HL-60(TB) leukemia = tested on: HL-60(TB) leukemia
HOP-62 NSCLC = tested on: HOP-62 NSCLC
HOP-92 NSCLC = tested on: HOP-92 NSCLC
HS 578T breast = tested on: HS 578T breast
HT29 colon = tested on: HT29 colon
IGROV1 ovarian = tested on: IGROV1 ovarian
K-562 leukemia = tested on: K-562 leukemia
KM12 colon = tested on: KM12 colon
LOX IMVI melanoma = tested on: LOX IMVI melanoma
M14 melanoma = tested on: M14 melanoma
MALME-3M melanoma = tested on: MALME-3M melanoma
MCF7 breast = tested on: MCF7 breast
MDA-MB-231 breast = tested on: MDA-MB-231 breast
MDA-MB-435 = tested on: MDA-MB-435
MOLT-4 leukemia = tested on: MOLT-4 leukemia
NCI-H226 lung = tested on: NCI-H226 lung
NCI-H23 lung = tested on: NCI-H23 lung
NCI-H460 lung = tested on: NCI-H460 lung
NCI-H522 lung = tested on: NCI-H522 lung
NCI/ADR-RES ovarian = tested on: NCI/ADR-RES ovarian
OVCAR-3 ovarian = tested on: OVCAR-3 ovarian
OVCAR-4 ovarian = tested on: OVCAR-4 ovarian
OVCAR-5 ovarian = tested on: OVCAR-5 ovarian
OVCAR-8 ovarian = tested on: OVCAR-8 ovarian
PC-3 prostate = tested on: PC-3 prostate
RPMI-8226 leukemia = tested on: RPMI-8226 leukemia
RXF 393 renal = tested on: RXF 393 renal
SF-268 CNS = tested on: SF-268 CNS
SF-295 CNS = tested on: SF-295 CNS
SF-539 CNS = tested on: SF-539 CNS
SK-MEL-2 melanoma = tested on: SK-MEL-2 melanoma
SK-MEL-28 melanoma = tested on: SK-MEL-28 melanoma
SK-MEL-5 melanoma = tested on: SK-MEL-5 melanoma
SK-OV-3 ovarian = tested on: SK-OV-3 ovarian
SN12C renal = tested on: SN12C renal
SNB-19 CNS = tested on: SNB-19 CNS
SNB-75 CNS = tested on: SNB-75 CNS
SR leukemia = tested on: SR leukemia
SW-620 colon = tested on: SW-620 colon
T-47D breast = tested on: T-47D breast
TK-10 renal = tested on: TK-10 renal
U251 CNS = tested on: U251 CNS
UACC-257 melanoma = tested on: UACC-257 melanoma
UACC-62 melanoma = tested on: UACC-62 melanoma
UO-31 renal = tested on: UO-31 renal
MDA-N = tested on: MDA-N

`COc1cc2ncn(-c3cc(O[C@@H](C)c4ccccc4Cl)c(C(N)=O)s3)c2cc1OC` gave a GI50 (786-0 renal) of 4.43 µM, a TGI (786-0 renal) greater than 25 µM and a GI50 (A498 renal) of 1080 nM. For the same compound, the TGI (A498 renal) was 13.8 µM, the GI50 (A549 NSCLC) was 1450 nM and the TGI (A549 NSCLC) was greater than 25 µM. It also gave a GI50 (ACHN renal) of 2890 nM, a TGI (ACHN renal) greater than 25 µM and a GI50 (BT-549 breast) of 2940 nM. The TGI (BT-549 breast) was greater than 24.1 µM, the GI50 (CAKI-1 renal) was 6.8 µM and the TGI (CAKI-1 renal) was greater than 25 µM. It also gave a GI50 (CCRF-CEM leukemia) of 107 nM, a TGI (CCRF-CEM leukemia) greater than 10.5 µM and a GI50 (COLO 205 colon) of 444 nM. It also gave a TGI (COLO 205 colon) greater than 25 µM, a GI50 (DU-145 prostate) of 727 nM and a TGI (DU-145 prostate) greater than 25 µM. The GI50 (EKVX NSCLC) was 6.66 µM, the TGI (EKVX NSCLC) was greater than 25 µM and the GI50 (HCC-2998 colon) was 2550 nM. It also gave a TGI (HCC-2998 colon) greater than 25 µM, a GI50 (HCT-116 colon) of 1010 nM and a TGI (HCT-116 colon) greater than 25 µM. The GI50 (HCT-15 colon) was 743 nM, the TGI (HCT-15 colon) was greater than 25 µM and the GI50 (HL-60(TB) leukemia) was 728 nM. It also gave a TGI (HL-60(TB) leukemia) of 2.86 µM, a GI50 (HOP-62 NSCLC) of 744 nM and a TGI (HOP-62 NSCLC) greater than 25 µM. For the same compound, the GI50 (HOP-92 NSCLC) was 4.67 µM, the TGI (HOP-92 NSCLC) was greater than 25 µM and the GI50 (HS 578T breast) was 2110 nM. For the same compound, the TGI (HS 578T breast) was 13.4 µM, the GI50 (HT29 colon) was 107 nM and the TGI (HT29 colon) was greater than 25 µM. It also gave a GI50 (IGROV1 ovarian) of 3.69 µM, a TGI (IGROV1 ovarian) greater than 25 µM and a GI50 (K-562 leukemia) of 983 nM. For the same compound, the TGI (K-562 leukemia) was greater than 25 µM, the GI50 (KM12 colon) was 559 nM and the TGI (KM12 colon) was greater than 25 µM. For the same compound, the GI50 (LOX IMVI melanoma) was 1050 nM, the TGI (LOX IMVI melanoma) was greater than 25 µM and the GI50 (M14 melanoma) was 1760 nM. The TGI (M14 melanoma) was greater than 25 µM, the GI50 (MALME-3M melanoma) was 13.7 µM and the TGI (MALME-3M melanoma) was greater than 25 µM. The GI50 (MCF7 breast) was 111 nM, the TGI (MCF7 breast) was greater than 25 µM and the GI50 (MDA-MB-231 breast) was 1190 nM. The TGI (MDA-MB-231 breast) was greater than 25 µM, the GI50 (MDA-MB-435) was 146 nM and the TGI (MDA-MB-435) was greater than 25 µM. The GI50 (MOLT-4 leukemia) was 926 nM, the TGI (MOLT-4 leukemia) was greater than 18.4 µM and the GI50 (NCI-H226 lung) was 2300 nM. It also gave a TGI (NCI-H226 lung) greater than 19.4 µM, a GI50 (NCI-H23 lung) of 1570 nM and a TGI (NCI-H23 lung) greater than 25 µM. The GI50 (NCI-H460 lung) was 949 nM, the TGI (NCI-H460 lung) was greater than 25 µM and the GI50 (NCI-H522 lung) was 434 nM. For the same compound, the TGI (NCI-H522 lung) was 6.51 µM, the GI50 (NCI/ADR-RES ovarian) was 429 nM and the TGI (NCI/ADR-RES ovarian) was greater than 25 µM. The GI50 (OVCAR-3 ovarian) was 513 nM, the TGI (OVCAR-3 ovarian) was greater than 17.4 µM and the GI50 (OVCAR-4 ovarian) was 3.53 µM. It also gave a TGI (OVCAR-4 ovarian) greater than 25 µM, a GI50 (OVCAR-5 ovarian) of 1290 nM and a TGI (OVCAR-5 ovarian) greater than 25 µM. For the same compound, the GI50 (OVCAR-8 ovarian) was 1450 nM, the TGI (OVCAR-8 ovarian) was greater than 25 µM and the GI50 (PC-3 prostate) was 2550 nM. For the same compound, the TGI (PC-3 prostate) was greater than 25 µM, the GI50 (RPMI-8226 leukemia) was 1490 nM and the TGI (RPMI-8226 leukemia) was greater than 19 µM. For the same compound, the GI50 (RXF 393 renal) was 346 nM, the TGI (RXF 393 renal) was greater than 22.9 µM and the GI50 (SF-268 CNS) was 1610 nM. For the same compound, the TGI (SF-268 CNS) was greater than 25 µM, the GI50 (SF-295 CNS) was 1250 nM and the TGI (SF-295 CNS) was greater than 25 µM. For the same compound, the GI50 (SF-539 CNS) was 832 nM, the TGI (SF-539 CNS) was greater than 25 µM and the GI50 (SK-MEL-2 melanoma) was 1580 nM. The TGI (SK-MEL-2 melanoma) was greater than 25 µM, the GI50 (SK-MEL-28 melanoma) was 3.84 µM and the TGI (SK-MEL-28 melanoma) was greater than 25 µM. For the same compound, the GI50 (SK-MEL-5 melanoma) was 247 nM, the TGI (SK-MEL-5 melanoma) was 5.26 µM and the GI50 (SK-OV-3 ovarian) was 803 nM. For the same compound, the TGI (SK-OV-3 ovarian) was greater than 25 µM, the GI50 (SN12C renal) was 3.05 µM and the TGI (SN12C renal) was greater than 25 µM. It also gave a GI50 (SNB-19 CNS) of 2700 nM, a TGI (SNB-19 CNS) greater than 25 µM and a GI50 (SNB-75 CNS) of 3.86 µM. For the same compound, the TGI (SNB-75 CNS) was greater than 25 µM, the GI50 (SR leukemia) was 701 nM and the TGI (SR leukemia) was greater than 18.8 µM. The GI50 (SW-620 colon) was 612 nM, the TGI (SW-620 colon) was greater than 25 µM and the GI50 (T-47D breast) was 1800 nM. The TGI (T-47D breast) was 7.09 µM, the GI50 (TK-10 renal) was 4.14 µM and the TGI (TK-10 renal) was greater than 23.1 µM. It also gave a GI50 (U251 CNS) of 1840 nM, a TGI (U251 CNS) greater than 25 µM and a GI50 (UACC-257 melanoma) of 3.1 µM. It also gave a TGI (UACC-257 melanoma) greater than 21.9 µM, a GI50 (UACC-62 melanoma) of 638 nM and a TGI (UACC-62 melanoma) greater than 25 µM. It also gave a GI50 (UO-31 renal) of 5.3 µM and a TGI (UO-31 renal) greater than 25 µM.
For `CC(=O)O/C=C1/C[C@H]2[C@@H]3CCC4CC(C(C)=O)CC[C@]4(C)[C@H]3CC[C@]2(C)C1=O` (stereo not given in full), the TGI (786-0 renal) was greater than 100 µM, the TGI (A498 renal) was greater than 100 µM and the TGI (ACHN renal) was greater than 100 µM. For the same compound, the TGI (BT-549 breast) was greater than 100 µM, the TGI (CAKI-1 renal) was greater than 100 µM and the TGI (CCRF-CEM leukemia) was greater than 100 µM. The TGI (DU-145 prostate) was greater than 100 µM, the TGI (EKVX NSCLC) was greater than 100 µM and the TGI (HCC-2998 colon) was greater than 100 µM. For the same compound, the TGI (HCT-116 colon) was greater than 100 µM, the TGI (HCT-15 colon) was greater than 100 µM and the TGI (HL-60(TB) leukemia) was 37.2 µM. It also gave a TGI (HOP-62 NSCLC) greater than 100 µM, a TGI (HOP-92 NSCLC) greater than 100 µM and a TGI (HT29 colon) greater than 100 µM. For the same compound, the TGI (IGROV1 ovarian) was greater than 100 µM, the TGI (K-562 leukemia) was greater than 100 µM and the TGI (KM12 colon) was 93.3 µM. It also gave a TGI (LOX IMVI melanoma) greater than 100 µM, a TGI (MALME-3M melanoma) greater than 100 µM and a TGI (MCF7 breast) greater than 100 µM. The TGI (MDA-MB-231 breast) was greater than 100 µM, the TGI (MDA-MB-435) was greater than 100 µM and the TGI (MDA-N) was greater than 100 µM. It also gave a TGI (MOLT-4 leukemia) greater than 100 µM, a TGI (NCI-H226 lung) greater than 100 µM and a TGI (NCI-H23 lung) greater than 100 µM. It also gave a TGI (NCI-H460 lung) greater than 100 µM, a TGI (NCI-H522 lung) greater than 100 µM and a TGI (OVCAR-3 ovarian) of 97.3 µM. The TGI (OVCAR-4 ovarian) was greater than 100 µM, the TGI (OVCAR-5 ovarian) was greater than 100 µM and the TGI (PC-3 prostate) was greater than 100 µM. The TGI (RXF 393 renal) was greater than 100 µM, the TGI (SF-268 CNS) was greater than 100 µM and the TGI (SF-295 CNS) was greater than 100 µM. For the same compound, the TGI (SK-MEL-2 melanoma) was greater than 100 µM, the TGI (SK-MEL-28 melanoma) was greater than 100 µM and the TGI (SK-MEL-5 melanoma) was greater than 100 µM. For the same compound, the TGI (SK-OV-3 ovarian) was greater than 100 µM, the TGI (SN12C renal) was greater than 100 µM and the TGI (SNB-19 CNS) was greater than 100 µM. It also gave a TGI (SR leukemia) greater than 100 µM, a TGI (SW-620 colon) greater than 100 µM and a TGI (TK-10 renal) greater than 100 µM. The TGI (U251 CNS) was greater than 100 µM, the TGI (UACC-257 melanoma) was greater than 100 µM and the TGI (UACC-62 melanoma) was greater than 100 µM. The TGI (UO-31 renal) was greater than 100 µM.
